Data as given in ChEMBL document CHEMBL1143925, “Deconstructing cytisine: The syntheses of (+/-)-cyfusine and (+/-)-cyclopropylcyfusine, fused ring analogs of cytisine” (Bioorg Med Chem Lett, 2008).

Assays:
[1] = molecular target: Neuronal acetylcholine receptor; alpha4/beta2 (Rattus norvegicus, UniProt P09483+P12390); experiment: Displacement of [3H]nicotine from alpha4beta2 nAChR in Sprague-Dawley rat brain membrane; assay type: cell membranes
[2] = molecular target: Neuronal acetylcholine receptor; alpha3/beta4 (Homo sapiens, UniProt P30926+P32297); experiment: Displacement of [3H]epibatidine from human alpha3beta4 nAChR in IMR32 cells; assay type: cell-based, IMR-32
[3] = molecular target: Neuronal acetylcholine receptor subunit alpha-7 (Rattus norvegicus, UniProt Q05941); experiment: Displacement of [125I]alpha-bungarotoxin from rat alpha7 nAChR in GH4C1 cells; assay type: cell-based, GH4-C1
Neuronal acetylcholine receptor subunit alpha-7, sequence (Q05941 whole entry): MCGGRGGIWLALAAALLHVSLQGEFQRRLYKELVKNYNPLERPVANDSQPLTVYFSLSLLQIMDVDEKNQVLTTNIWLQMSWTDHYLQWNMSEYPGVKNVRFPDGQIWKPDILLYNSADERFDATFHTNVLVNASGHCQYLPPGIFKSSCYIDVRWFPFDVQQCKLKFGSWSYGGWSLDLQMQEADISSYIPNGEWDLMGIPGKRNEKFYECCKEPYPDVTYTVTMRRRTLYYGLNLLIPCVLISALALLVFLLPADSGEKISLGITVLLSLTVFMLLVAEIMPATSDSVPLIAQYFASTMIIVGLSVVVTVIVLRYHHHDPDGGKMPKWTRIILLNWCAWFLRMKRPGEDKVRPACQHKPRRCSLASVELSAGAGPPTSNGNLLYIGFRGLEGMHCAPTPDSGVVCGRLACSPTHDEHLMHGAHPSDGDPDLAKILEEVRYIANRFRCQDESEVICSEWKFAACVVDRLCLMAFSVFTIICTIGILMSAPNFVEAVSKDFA

Neuronal acetylcholine receptor; alpha3/beta4, sequence (P30926 whole entry): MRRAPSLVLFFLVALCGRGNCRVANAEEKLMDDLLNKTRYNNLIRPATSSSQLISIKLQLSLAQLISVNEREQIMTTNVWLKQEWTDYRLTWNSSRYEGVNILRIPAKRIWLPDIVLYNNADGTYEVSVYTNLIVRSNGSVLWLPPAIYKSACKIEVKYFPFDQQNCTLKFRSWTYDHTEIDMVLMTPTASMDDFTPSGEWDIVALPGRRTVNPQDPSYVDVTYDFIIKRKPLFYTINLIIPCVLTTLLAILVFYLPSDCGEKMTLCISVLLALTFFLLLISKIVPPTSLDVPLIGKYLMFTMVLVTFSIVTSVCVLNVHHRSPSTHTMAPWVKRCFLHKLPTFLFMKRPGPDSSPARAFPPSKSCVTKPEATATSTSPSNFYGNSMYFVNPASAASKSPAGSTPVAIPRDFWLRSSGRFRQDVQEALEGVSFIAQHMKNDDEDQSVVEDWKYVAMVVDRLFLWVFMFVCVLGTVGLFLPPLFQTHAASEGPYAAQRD
Neuronal acetylcholine receptor; alpha3/beta4, sequence (P32297 whole entry): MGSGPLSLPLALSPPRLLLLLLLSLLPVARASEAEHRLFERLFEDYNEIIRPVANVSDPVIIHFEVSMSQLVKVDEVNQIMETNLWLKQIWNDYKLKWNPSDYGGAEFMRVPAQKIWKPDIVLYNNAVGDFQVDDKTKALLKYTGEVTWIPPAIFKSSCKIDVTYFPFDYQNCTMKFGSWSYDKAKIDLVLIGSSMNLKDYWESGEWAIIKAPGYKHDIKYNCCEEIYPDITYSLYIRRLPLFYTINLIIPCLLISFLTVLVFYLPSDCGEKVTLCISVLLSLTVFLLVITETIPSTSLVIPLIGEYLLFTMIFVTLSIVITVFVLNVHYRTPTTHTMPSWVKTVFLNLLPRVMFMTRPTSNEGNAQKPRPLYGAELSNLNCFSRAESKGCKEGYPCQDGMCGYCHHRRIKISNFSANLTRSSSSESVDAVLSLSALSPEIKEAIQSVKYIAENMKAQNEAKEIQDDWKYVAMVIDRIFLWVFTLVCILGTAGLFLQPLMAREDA
Neuronal acetylcholine receptor; alpha4/beta2, sequence (P09483 whole entry): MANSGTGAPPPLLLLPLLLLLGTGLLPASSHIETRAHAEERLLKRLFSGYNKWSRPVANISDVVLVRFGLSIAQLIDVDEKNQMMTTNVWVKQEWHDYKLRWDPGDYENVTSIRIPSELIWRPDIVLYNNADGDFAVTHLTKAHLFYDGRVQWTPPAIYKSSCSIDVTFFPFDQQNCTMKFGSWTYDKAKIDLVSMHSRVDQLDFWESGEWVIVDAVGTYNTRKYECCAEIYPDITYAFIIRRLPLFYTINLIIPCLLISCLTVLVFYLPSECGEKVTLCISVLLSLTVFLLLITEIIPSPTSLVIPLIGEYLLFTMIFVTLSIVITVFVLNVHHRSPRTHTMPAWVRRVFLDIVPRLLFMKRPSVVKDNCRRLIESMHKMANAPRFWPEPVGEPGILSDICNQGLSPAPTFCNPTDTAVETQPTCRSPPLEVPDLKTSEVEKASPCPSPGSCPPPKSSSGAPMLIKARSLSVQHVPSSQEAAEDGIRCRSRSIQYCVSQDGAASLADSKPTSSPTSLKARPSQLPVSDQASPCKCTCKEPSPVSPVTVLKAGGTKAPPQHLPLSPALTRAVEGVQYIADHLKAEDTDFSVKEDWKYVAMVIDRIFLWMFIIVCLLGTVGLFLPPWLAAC
Neuronal acetylcholine receptor; alpha4/beta2, sequence (P12390 whole entry): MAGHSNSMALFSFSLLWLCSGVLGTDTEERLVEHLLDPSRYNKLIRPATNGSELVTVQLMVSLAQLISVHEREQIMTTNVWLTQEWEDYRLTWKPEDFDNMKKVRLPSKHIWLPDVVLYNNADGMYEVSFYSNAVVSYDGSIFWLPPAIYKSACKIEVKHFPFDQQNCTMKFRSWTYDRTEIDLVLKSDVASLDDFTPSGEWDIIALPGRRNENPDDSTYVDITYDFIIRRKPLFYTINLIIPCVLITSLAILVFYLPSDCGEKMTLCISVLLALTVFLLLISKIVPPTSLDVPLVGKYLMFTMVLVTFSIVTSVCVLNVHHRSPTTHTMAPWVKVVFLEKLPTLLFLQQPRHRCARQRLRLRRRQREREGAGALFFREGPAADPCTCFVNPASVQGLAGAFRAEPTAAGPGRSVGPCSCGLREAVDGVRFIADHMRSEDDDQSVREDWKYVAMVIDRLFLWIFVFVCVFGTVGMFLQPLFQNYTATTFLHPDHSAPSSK

| SMILES | Ki [1] | Ki [2] | Ki [3] |
| --- | --- | --- | --- |
| O=c1cccc2n1CC13CNCC21C3 (racemic) [CYCLOPROPYLCYFUSINE] | 0.144 µM | > 0.5 µM | > 0.5 µM |
| O=c1cccc2n1CC1CNCC21 (racemic) [CYFUSINE] | 0.016 µM | > 0.5 µM | > 0.5 µM |
| O=c1cccc2n1C[C@@H]1CNC[C@H]2C1 [CYTISINICLINE] | 0.00043 µM | 1.56 µM | 5.82 µM |
